One substance from patent US20150368296A1, “Method for preventing or treating heart diseases by using a composition containing an isolated peptide” (Tunghai University, priority 2014, published 2015) can be followed below.

Holding throughout (format): in vivo
In one test the test system is Bcl-2 protein. Briefly: Western blot of Bcl-2 in heart tissue of high-fat diet mice. Conditions: high-fat diet C57BL/6 mice, 5, 10 and 25 mg/kg/day intraperitoneally (groups 3 to 5) vs group 2 (high-fat diet, saline); relative to tubulin. Here is the method:
(§1) The male C57BL/6 mice at the age of 6 weeks were divided into 5 groups for 8 mice in each group. […]
(§2) Protein concentration of the extract was determined by Lowry's protein assay method. […]
(§3) The protein extraction of the mice heart tissues from the each group in example 2 were processed by the western blot method in example 3 to observe the expressions of related apoptosis regulatory proteins in the mice heart tissues from the each group. The results were shown at FIGS. 2 and 3, wherein the tubulin was used for an internal control in FIG. 2 and the expression levels of related apoptosis regulatory proteins were calculated basing on the expression level of tubulin in each figure of FIG. 3.
In general terms: A western blot detects proteins with antibodies after separation by electrophoresis.

The subject of a further test is cytochrome C. Nature of the test: Western blot of cytochrome C in heart tissue of high-fat diet mice. Conditions: high-fat diet C57BL/6 mice, 5, 10 and 25 mg/kg/day intraperitoneally (groups 3 to 5) vs group 2 (high-fat diet, saline); relative to tubulin. Here is the method: as §1, §2, §3
A further test deals with caspase-3. Briefly: Western blot of activated caspase-3 in heart tissue of high-fat diet mice. Conditions: high-fat diet C57BL/6 mice, 5, 10 and 25 mg/kg/day intraperitoneally (groups 3 to 5) vs group 2 (high-fat diet, saline); relative to tubulin. Here is the method: as §1, §2, §3
In test [1] the test system is nuclear factor of activated T-cells C3 (NFTA-C3). Briefly: Western blot of NFTA-C3 in heart tissue of high-fat diet mice. Conditions: high-fat diet C57BL/6 mice, 5, 10 and 25 mg/kg/day intraperitoneally (groups 3 to 5) vs group 2 (high-fat diet, saline); relative to tubulin. Here is the method:
as §1, §2
(§4) The protein extraction of the mice heart tissues from the each group in example 2 were processed by the western blot method in example 3 to observe the expressions of nuclear factor of activated T-cells C3 (NFTA-C3) and calcineurin in the mice heart tissues from the each group. The results were shown at FIGS. 4 and 5, wherein the tubulin was used for an internal control in FIG. 4 and the expression levels of NFTA-C3 and calcineurin were calculated basing on the expression level of tubulin in each figure of FIG. 5.

The next test concerns calcineurin. Briefly: Western blot of calcineurin in heart tissue of high-fat diet mice. Conditions: high-fat diet C57BL/6 mice, 5, 10 and 25 mg/kg/day intraperitoneally (groups 3 to 5) vs group 2 (high-fat diet, saline); relative to tubulin. Here is the method: as §1, §2, §4
Another test concerns STAT-3. Nature of the test: Western blot of STAT-3 in heart tissue of high-fat diet mice. Conditions: high-fat diet C57BL/6 mice, 5, 10 and 25 mg/kg/day intraperitoneally (groups 3 to 5) vs group 2 (high-fat diet, saline); relative to tubulin. Here is the method: as §1, §2
(§5) The protein extraction of the mice heart tissues from the each group in example 2 were processed by the western blot method in example 3 to observe the expressions of the related signal transduction proteins of heart hypertrophy including: STAT-3, IL-6, MEK-5 and ERK-5. The results were shown at FIGS. 6 and 7, wherein the tubulin was used for an internal control in FIG. 6 and the expression levels of the related signal transduction proteins of heart hypertrophy in the mice heart tissues from each group was calculated basing on the expression level of tubulin in FIG. 7.

For the next test, the system named is IL-6. Nature of the test: Western blot of IL-6 in heart tissue of high-fat diet mice. Conditions: high-fat diet C57BL/6 mice, 5, 10 and 25 mg/kg/day intraperitoneally (groups 3 to 5) vs group 2 (high-fat diet, saline); relative to tubulin. Here is the method: as §1, §2, §5
A further test concerns MEK-5. Briefly: Western blot of MEK-5 in heart tissue of high-fat diet mice. Conditions: high-fat diet C57BL/6 mice, 5, 10 and 25 mg/kg/day intraperitoneally (groups 3 to 5) vs group 2 (high-fat diet, saline); relative to tubulin. Here is the method: as §1, §2, §5
In another test the test system is ERK-5. Briefly: Western blot of ERK-5 in heart tissue of high-fat diet mice. Conditions: high-fat diet C57BL/6 mice, 5, 10 and 25 mg/kg/day intraperitoneally (groups 3 to 5) vs group 2 (high-fat diet, saline); relative to tubulin. Here is the method:
as §1, §2, §5

For a further test, the system named is p38α protein. Briefly: Western blot of p38α protein in heart tissue of high-fat diet mice. Conditions: high-fat diet C57BL/6 mice, 5, 10 and 25 mg/kg/day intraperitoneally (groups 3 to 5) vs group 2 (high-fat diet, saline); relative to tubulin. Here is the method:
(§6) The male C57BL/6 mice at the age of 6 weeks were divided into 5 groups for 8 mice in each group. The each group of mice were feed at 24±2° C. of temperature, humidity of 55±10% and 12/12 light cycle for 8 weeks, wherein the group 1 was control group on a normal diet (PMI Nutrition International, Brentwood, Mo., USA) and injected 0.9% saline intraperitoneally; the group 2 was fed high-fat diet to induce the mice into heart hypertrophy model and injected 0.9% saline intraperitoneally; the group 3 was fed high-fat diet and SEQ ID NO.:1 peptide was injected intraperitoneally with the dose of 5 mg/kg/day; the group 4 was fed high-fat diet and SEQ ID NO.:1 peptide was injected intraperitoneally with the dose of 10 mg/kg/day; the group 5 was fed high-fat diet and SEQ ID NO.:1 peptide was injected intraperitoneally with the dose of 25 mg/kg/day. […]
as §2
(§7) The protein extraction of the mice heart tissues from the each group in example 2 were processed by the western blot method in example 3 to observe the expressions of p38α protein and JNK. The results were shown at FIGS. 8 and 9, wherein the tubulin was used for an internal control in FIG. 8 and the expression levels of p38α protein and JNK were calculated basing on the expression level of tubulin in each figure of FIG. 9.

The test system of another test is JNK. Nature of the test: Western blot of JNK in heart tissue of high-fat diet mice. Conditions: high-fat diet C57BL/6 mice, 5, 10 and 25 mg/kg/day intraperitoneally (groups 3 to 5) vs group 2 (high-fat diet, saline); relative to tubulin. Here is the method: as §6, §2, §7
The next test concerns FGF-2. Nature of the test: Western blot of FGF-2 in heart tissue of high-fat diet mice. Conditions: high-fat diet C57BL/6 mice, 5, 10 and 25 mg/kg/day intraperitoneally (groups 3 to 5) vs group 2 (high-fat diet, saline); relative to tubulin. Here is the method: as §1, §2
(§8) The protein extraction of the mice heart tissues from the each group in example 2 were processed by the western blot method in example 3 to observe the expressions of the related proteins of cardiac fibrosis pathway including: FGF-2, ERK-1, UPA, MMP-2 and MMP-9. The results were shown at FIGS. 10 and 11, wherein the tubulin was used for an internal control in FIG. 10 and the expression levels of FGF-2, ERK-1, UPA, MMP-2 and MMP-9 in the mice heart tissues from the each group was calculated basing on the expression level of tubulin in each figures of FIG. 11.

For the next test, the system named is ERK-1. Nature of the test: Western blot of ERK-1 in heart tissue of high-fat diet mice. Conditions: high-fat diet C57BL/6 mice, 5, 10 and 25 mg/kg/day intraperitoneally (groups 3 to 5) vs group 2 (high-fat diet, saline); relative to tubulin. Here is the method:
as §1, §2, §8

A further test has as its system UPA. Nature of the test: Western blot of UPA in heart tissue of high-fat diet mice. Conditions: high-fat diet C57BL/6 mice, 5, 10 and 25 mg/kg/day intraperitoneally (groups 3 to 5) vs group 2 (high-fat diet, saline); relative to tubulin. Here is the method:
as §1, §2, §8

For the next test, the system named is MMP-2. Nature of the test: Western blot of MMP-2 in heart tissue of high-fat diet mice. Conditions: high-fat diet C57BL/6 mice, 5, 10 and 25 mg/kg/day intraperitoneally (groups 3 to 5) vs group 2 (high-fat diet, saline); relative to tubulin. Here is the method: as §1, §2, §8
In another test the test system is MMP-9. Nature of the test: Western blot of MMP-9 in heart tissue of high-fat diet mice. Conditions: high-fat diet C57BL/6 mice, 5, 10 and 25 mg/kg/day intraperitoneally (groups 3 to 5) vs group 2 (high-fat diet, saline); relative to tubulin. Here is the method: as §1, §2, §8
A further test deals with ANP. Nature of the test: Western blot of ANP in heart tissue of high-fat diet mice. Conditions: high-fat diet C57BL/6 mice, 5, 10 and 25 mg/kg/day intraperitoneally (groups 3 to 5) vs group 2 (high-fat diet, saline); relative to tubulin. Here is the method: as §1, §2
(§9) The protein extraction of the mice heart tissues from the each group in example 2 were processed by the western blot method in example 3 to observe the expressions of the indicator of heart hypertrophy and heart failure. The results were shown at FIGS. 12 and 13, wherein the tubulin was used for an internal control in FIG. 12 and the expression levels of the ANP and BNP in the mice heart tissues from the each group was calculated basing on the expression level of tubulin in each figures of FIG. 13.

The next test deals with BNP. Briefly: Western blot of BNP in heart tissue of high-fat diet mice. Conditions: high-fat diet C57BL/6 mice, 5, 10 and 25 mg/kg/day intraperitoneally (groups 3 to 5) vs group 2 (high-fat diet, saline); relative to tubulin. Here is the method:
as §1, §2, §9

Another test has as its system myocardial cells. Nature of the test: H&E stained section of heart tissues of high-fat diet mice. Conditions: 15 and 25 mg/kg/day intraperitoneally (groups 3 and 4) vs group 2 (high-fat diet, saline). Here is the method:
The male C57BL/6 mice at the age of 6 weeks were divided into 5 groups for 8 mice in each group. The each group of mice were feed at 24±2° C. of temperature, humidity of 55±10% and 12/12 light cycle for 8 weeks, wherein the group 1 was control group on a normal diet (PMI Nutrition International, Brentwood, Mo., USA) and injected 0.9% saline intraperitoneally; the group 2 was fed high-fat diet to induce the mice into heart hypertrophy model and injected 0.9% saline intraperitoneally; the group 3 was fed high-fat diet and SEQ ID NO.:1 peptide was injected intraperitoneally with the dose of 5 mg/kg/day; the group 4 was fed high-fat diet and SEQ ID NO.:1 peptide was injected intraperitoneally with the dose of 10 mg/kg/day; the group 5 was fed high-fat diet and SEQ ID NO.:1 peptide was injected intraperitoneally with the dose of 25 mg/kg/day. The injection period of each group of mice was between the third week to the sixth week of feeding period. The high-fat diet contained 60% of energy as fat.
The feeding method was the same with example 1. Mice were divided into 4 groups for feeding at different conditions. The intraperitoneal injection was performed between the third week and the sixth week of the feeding period. […]

Regarding “SEQ ID NO.:1 peptide: isolated peptide which amino acid sequence is SEQ ID NO.: 1; extracted from organisms, separated by hydrolysis or chemical synthesis (VHVV)”, in the test on Bcl-2 protein, the “expression level of Bcl-2 in the heart cell” value is “obviously increased”. For the same substance, the “expression level of cytochrome C in the heart cell” value in the test on cytochrome C was “obviously decreased”. Further, the “expression level of activated caspase-3 in the heart cell” value in the test with caspase-3 is given as “obviously decreased”. Moreover, the “expression level of NFTA-C3 in the heart cells” value in test [1] is on record as “obviously decreased”. For the same substance, in the test with calcineurin, the “expression level of calcineurin in the heart cells” value is “obviously decreased”. The “expression level of STAT-3 in the heart tissues” value with STAT-3 is “obviously lower”. Besides, the “expression level of IL-6 in the heart tissues” value with IL-6 was “obviously lower”. The “expression level of MEK-5 in the heart tissues” value in the test with MEK-5 was “obviously lower”. The “expression level of ERK-5 in the heart tissues” value in the test on ERK-5 was “obviously lower”. Moreover, the “expression level of p38α protein in the heart cells” value with p38α protein was “significantly lower”. In the test with JNK, the “expression level of JNK in the heart cells” value is “significantly lower”. Further, the “expression level of FGF-2 (related protein of cardiac fibrosis pathway) in heart tissues” value in the test on FGF-2 was “obviously lower”. In the test with ERK-1, the “expression level of ERK-1 (related protein of cardiac fibrosis pathway) in heart tissues” value is given as “obviously lower”. Besides, in the test with UPA, the “expression level of UPA (related protein of cardiac fibrosis pathway) in heart tissues” value is “obviously lower”. In addition, the “expression level of MMP-2 (related protein of cardiac fibrosis pathway) in heart tissues” value in the test on MMP-2 is listed as “obviously lower”. Further, the “expression level of MMP-9 (related protein of cardiac fibrosis pathway) in heart tissues” value in the test on MMP-9 is “obviously lower”. Further, the “expression level of ANP in the heart tissues” value in the test with ANP is “obviously decreased”. In addition, the “expression level of BNP in the heart tissues” value in the test with BNP is “obviously decreased”. Besides, in the test on myocardial cells, the “arrangement of myocardial cells in H&E stained heart sections” value is “more orderly and closely and has normal structure of heart muscles”.
